Results on nine compounds are retold here after patent EP1595878A1, “INDOLE DERIVATIVES WITH APOPTOSIS INDUCING ACTIVITY” (Zentaris GmbH, priority 2004, dated 2005).

SMILES strings stand for the structures. Read-outs that look alike come from different tables or passages of the source.

Data set [1] deals with humaner DNA-Topoisomerase II (Homo sapiens, UniProt P11388). Briefly: kDNA decatenation assay for topoisomerase II activity. The class given is biochemical. The settings on record: compound 1 at 100, 31.6 and 10 µM; reference compounds at 100 µM. How it is done: In diesem von P. Arimondo (Anti-Cancer Drug Design 2000, 15 (6), 413-421) beschriebenen Assay wird kDNA mit humaner DNA-Topoisomerase II in Abwesenheit oder Gegenwart der Testverbindungen behandelt. Die Testung der erfindungsgemäßen Verbindung 1 erfolgte hierbei bei drei unterschiedlichen Konzentrationen (100, 31.6 und 10 µM). Zum Vergleich setzte man eine Positivkontrolle und die Referenzverbindungen m-Amsacrin (m-Amsa), Paclitaxel (Taxol) und Vincristine bei einer jeweiligen Konzentration von 100µM ein.
Chain of humaner DNA-Topoisomerase II (P11388 whole entry): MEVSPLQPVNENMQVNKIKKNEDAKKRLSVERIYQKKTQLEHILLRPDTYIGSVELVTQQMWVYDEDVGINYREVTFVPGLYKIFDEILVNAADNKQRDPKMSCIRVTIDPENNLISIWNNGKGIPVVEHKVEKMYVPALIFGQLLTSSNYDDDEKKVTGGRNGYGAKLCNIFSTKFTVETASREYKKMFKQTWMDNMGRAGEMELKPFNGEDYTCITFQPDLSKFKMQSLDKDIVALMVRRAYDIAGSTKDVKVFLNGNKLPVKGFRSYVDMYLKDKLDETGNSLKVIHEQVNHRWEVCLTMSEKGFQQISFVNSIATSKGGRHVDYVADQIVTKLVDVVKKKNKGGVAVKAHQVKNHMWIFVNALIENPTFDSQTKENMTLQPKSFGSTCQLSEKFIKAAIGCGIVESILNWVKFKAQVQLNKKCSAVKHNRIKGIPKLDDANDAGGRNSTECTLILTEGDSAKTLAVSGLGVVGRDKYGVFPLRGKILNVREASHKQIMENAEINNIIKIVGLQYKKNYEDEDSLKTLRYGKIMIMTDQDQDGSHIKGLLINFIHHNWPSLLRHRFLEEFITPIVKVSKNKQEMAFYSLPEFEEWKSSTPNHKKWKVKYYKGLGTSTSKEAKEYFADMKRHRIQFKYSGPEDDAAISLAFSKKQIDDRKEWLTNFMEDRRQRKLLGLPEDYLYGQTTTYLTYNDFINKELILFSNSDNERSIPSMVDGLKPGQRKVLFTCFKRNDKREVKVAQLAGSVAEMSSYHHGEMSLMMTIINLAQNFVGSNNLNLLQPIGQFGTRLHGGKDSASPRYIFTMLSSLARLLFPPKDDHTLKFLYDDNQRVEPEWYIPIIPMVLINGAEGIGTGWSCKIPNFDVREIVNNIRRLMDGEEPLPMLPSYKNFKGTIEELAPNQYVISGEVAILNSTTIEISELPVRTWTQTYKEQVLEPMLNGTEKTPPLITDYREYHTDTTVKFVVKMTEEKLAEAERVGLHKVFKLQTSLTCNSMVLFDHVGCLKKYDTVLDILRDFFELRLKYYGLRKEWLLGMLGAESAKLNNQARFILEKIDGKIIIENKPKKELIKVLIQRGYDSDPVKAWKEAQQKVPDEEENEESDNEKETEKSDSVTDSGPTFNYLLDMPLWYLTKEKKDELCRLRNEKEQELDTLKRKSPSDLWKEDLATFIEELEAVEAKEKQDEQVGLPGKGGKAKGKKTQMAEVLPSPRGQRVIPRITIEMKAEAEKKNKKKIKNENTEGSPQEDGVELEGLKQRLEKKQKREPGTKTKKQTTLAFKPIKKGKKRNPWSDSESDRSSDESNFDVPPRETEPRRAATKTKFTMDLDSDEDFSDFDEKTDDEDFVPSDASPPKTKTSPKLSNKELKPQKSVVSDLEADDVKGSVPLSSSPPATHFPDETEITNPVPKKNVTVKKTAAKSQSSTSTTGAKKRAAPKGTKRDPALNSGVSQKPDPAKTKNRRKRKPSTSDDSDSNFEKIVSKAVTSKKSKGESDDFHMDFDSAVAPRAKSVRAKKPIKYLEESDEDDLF
Zu 1µL vorgelegter Testsubstanz (20fach konzentriert in 100% DMSO) werden 2µL 10x Assay Puffer, 1µL kDNA (200ng), 0,5µL human Topoisomerase II (1unit) und 15,5µL H2O pipettiert und gemischt.
Die Reaktionsansätze werden in den auf 37°C vorgeheizten Heizblock gestellt und 10min bei 37°C inkubiert. Die Inkubation wird nach Zugabe von 4µL 5x Stop Puffer gestoppt und nachfolgend die Substanz mit CIA extrahiert. Danach werden 20µL des Überstandes auf ein 1 % Agarosegel mit 0,25µg/mL Ethidiumbromid aufgetragen und 1 h bei 100V aufgetrennt. Zum Schluss wird das Gel unter UV-Anregung fotografiert (s. Figur 1). Die Quantifizierung der Inhibierung der Decatenation von kDNA erfolgt mit der GelPro®Analyzer Software (s. Figur 2)

The next data set addresses human Topoisomerase II (Homo sapiens, UniProt P11388). Briefly: pRYG relaxation assay for topoisomerase II activity. Type of data set: biochemical. The settings on record: compound 1 at 100, 31.6 and 10 µM; reference compounds at 316 and 100 µM. On the procedure: Mit diesem Relaxationsassay konnte zusätzlich die inhibitorische Eigenschaft der erfindungsgemäßen Verbindungen auf Topoisomerase II gezeigt werden. Die Testung der erfindungsgemäßen Verbindung 1 erfolgte hierbei bei drei unterschiedlichen Konzentrationen (100, 31.6 und 10 µM). Zum Vergleich setzte man die Referenzverbindungen m-Amsacrin, Paclitaxel (Taxol) und Vincristine bei Konzentrationen von 316 und 100µM ein.
Zu 1µL vorgelegter Testsubstanz (20fach konzentriert in 100% DMSO) werden 2µL 10x Assay Puffer, 0,5µL pRYG DNA (125ng), 0,5µL human Topoisomerase II (1 unit) und 16µL H2O pipettiert und gemischt. Die Reaktionsansätze werden in den auf 37°C vorgeheizten Heizblock gestellt und 30min bei 37°C inkubiert. Die Inkubation wird nach Zugabe von 4µL 5x Stop Puffer abgestoppt. Danach werden 10µL des Ansatzes auf ein 1,2% Agarosegel mit 0,25µg/mL Ethidiumbromid aufgetragen und 2,5h bei 100V aufgetrennt. Zum Schluß wird das Gel unter UV Anregung fotografiert (s. Figur 3). Die Quantifizierung der Inhibierung der pRYG Relaxation erfolgt mit der GelPro®Analyzer Software (s. Figur 4).

A further data set deals with Rindertubulin. The experiment in a line: Inhibition of tubulin polymerisation in vitro. Type of data set: biochemical, Rind. The settings on record: for Hemmwirkung auf die Polymerisation von Tubulin: verbal summary of Table 3; for EC50: cells print µM, head µg/ml, read-out: Hemmung der Tubulin-Polymerisation, EC50. An excerpt: Die Substanzen 1, 4, 9, 11, 12, 13 und 15 wurden in einem in-vitro Test auf Hemmung der Polymerisation von Rindertubulin getestet (D.M. Bollag et al. Cancer Res. 1995, 55, 2325-2333). In diesem Test wird durch Zyklen von Polymerisation und Depolymerisation aufgereinigtes Tubulin eingesetzt, welches durch Zugabe von GTP und Erwärmung zur Polymerisation gebracht wird. In Tabelle 3 sind die EC50 Werte der Polymerisationshemmung von Tubulin mit 30% assoziierten Proteinen (MAPs) angegeben.

The next data set has as its system Melanom, MEXF462. Type of data set: in vivo, Mäuse. The settings on record: for Todesfällen: dead animals / total. An excerpt: Die in vivo Aktivität und Verträglichkeit der erfindungsgemäßen Verbindung 2 wurde im Vergleich zu den Substanzen 10 und 14 in einem humanen Xenograft-Modell (Melanom, MEXF462) überprüft. Die Ergebnisse sind in der nachfolgenden Tabelle 6 zusammengefasst: in vivo Aktivitäten von Verbindung 2, 10 and 14 (Melanom; MEXF462) Tabelle 6: […]

The subject of another data set is Mamma, MAXF857. The class given is in vivo, Mäuse. The settings on record: 40 mg/kg p.o.; for Todesfällen: dead animals / total. From the text:
Die in vivo Aktivität und Verträglichkeit der erfindungsgemäßen Verbindung 2 wurde im Vergleich zu der Substanz 10 in einem weiteren humanen Xenograft-Modell (Mamma, MAXF857) überprüft. Die Ergebnisse werden in der nächsten Tabelle gezeigt: Effect of 2 and 10 on the Mammary Cancer MAXF857 Tabelle 7: […]

For data set [2], the system named is ovariale Adenokarzinomzelllinie SKOV-3 (ATCC HTB77). Briefly: XTT proliferation assay (cytotoxicity test), SKOV-3. The class given is cell-based. The settings on record: Homo sapiens, SK-OV-3; SKOV3; read-out: XTT Proliferationsassay, EC50. An excerpt: (§1) Die Substanzen 1, 2, 4, 9, 11, 12 , 13 und 15 wurden in einem Proliferationstest an etablierten Tumorzelllinien auf ihre anti-proliferative Aktivität hin untersucht (D.A. Scuderio et al. Cancer Res. 1988, 48, 4827-4833). Der verwendete Test bestimmt die zelluläre Dehydrogenase-Aktivität und ermöglicht eine Bestimmung der Zellvitalität und indirekt der Zellzahl. Bei den verwendeten Zelllinien handelt es sich um die humane Cervixkarzinom Zelllinie KB/HeLa (ATCC CCL17), die ovariale Adenokarzinomzelllinie SKOV-3 (ATCC HTB77), die humane Glioblastom Zelllinie SF-268 (NCI 503138) und die Lungenkarzinom Zelllinie NCI-H460 (NCI 503473).
A general note: Tetrazolium dyes change colour on reduction, which living cells bring about.

In data set [3] the test system is humane Glioblastom Zelllinie SF-268 (NCI 503138). The experiment in a line: XTT proliferation assay (cytotoxicity test), SF-268. The class given is cell-based. The settings on record: Homo sapiens, read-out: XTT Proliferationsassay, EC50.
From the text: as §1

In data set [4] the test system is humane Cervixkarzinom Zelllinie KB/HeLa (ATCC CCL17). The experiment in a line: XTT proliferation assay (cytotoxicity test), KB/HeLa. Type of data set: cell-based. The settings on record: Homo sapiens, read-out: XTT Proliferationsassay, EC50.
From the text: as §1

In data set [5] the test system is Lungenkarzinom Zelllinie NCI-H460 (NCI 503473). Briefly: XTT proliferation assay (cytotoxicity test), NCI-H460. Type of data set: cell-based. The settings on record: Homo sapiens, NCl-H460, read-out: XTT Proliferationsassay, EC50.
From the text: as §1

In another data set the test system is KB/HeLa Zellen. The experiment in a line: Cell cycle analysis (G2/M arrest). The settings on record: Homo sapiens, HeLa, 24 h, read-out: EC50 in nM (50% cells in G2/M). The class given is cell-based. An excerpt:
Der Zellzyklus umfasst die Entwicklung der Zelle von einer Zellgeneration zur nächsten.
Während der Ruhephase (G0) und präsynthetischen Phase (G1) besitzt die Zelle einen diploiden Chromosomensatz (2c). In der Synthesephase (S) wird die DNA-Menge durch Replikation vermehrt. Die S-Phase endet mit Erreichen der prämitotischen Phase (G2M), in der die Zelle einen reduplizierten Chromosomenbestand (4c) und verdoppelten DNA-Gehalt aufweist. In der nachfolgenden, kurzdauernden Mitosephase (M) kommt es zur gleichmäßigen Aufteilung der reduplizierten Chromosomen auf zwei Tochterzellen, die dann jeweils wieder einen diploiden DNA Gehalt zeigen und sich in der G01-Phase befinden, so daß der Zellzyklus neu beginnen kann.
Für die Zellzyklusanalyse wurden KB/HeLa Zellen mit den Testsubstanzen in unterschiedlichen Konzentrationen (0.1-1000 nM) 24 Stunden bei 37°C behandelt.
Der prozentuale Anteil der in der G2/M Phase des Zellzyklus arrettierten Zellen nach Behandlung mit Referenz- oder ausgewählten Testsubstanzen ist in der nachfolgenden Tabelle 4 dargestellt. Die Ergebnisse wurden mit einer speziellen Analysesoftware (ModFit™) ausgewertet.

[6] abbreviates: tubulin with 30% associated proteins (MAPs).

Chain of human Topoisomerase II (P11388 whole entry): as above

Turning to `CC(=O)O[C@H]1C(=O)[C@@]2(C)[C@H]([C@H](OC(=O)c3ccccc3)[C@]3(O)C[C@H](OC(=O)[C@H](O)[C@@H](NC(=O)c4ccccc4)c4ccccc4)C(C)=C1C3(C)C)[C@]1(OC(C)=O)CO[C@@H]1C[C@@H]2O` [Paclitaxel], in data set [1], the “Hemmung der Topoisomerase II (Inhibierung der Decatenation von kDNA)” value is “keine inhibitorischen Effekte”. The “Hemmung der Topoisomerase II (Inhibierung der pRYG Relaxation)” value at human Topoisomerase II is “keine inhibitorischen Effekte”.

As for `Cc1ccc2cc(NC(=O)C(=O)c3cn(Cc4ccc(Cl)cc4)c4ccccc34)ccc2n1` [Verbindung 9, 2-[1-(4-Chlor-benzyl)-1H-indol-3-yl]-N-(2-methyl-chinolin-6-yl)-2-oxo-acetamid], the “Hemmwirkung auf die Polymerisation von Tubulin” value with Rindertubulin is recorded as “sehr potente Hemmwirkung”.

For the compound `O=C(Nc1ccc2ncccc2c1)C(=O)c1cn(Cc2ccc(Cl)cc2)c2ccccc12` [Verbindung 10, 2-[1-(4-Chlor-benzyl)-1H-indol-3-yl]-2-oxo-N-chinolin-6-yl-acetamid], the “Optimale T/C % (Tag)” value with Melanom, MEXF462 (55 mg/kg p.o., day 14) is 0.8% (14); with Melanom, MEXF462 (70 mg/kg p.o., day 7), 2.3% (7); in the data set on Mamma, MAXF857 (day 10) it was 6.5% (10). Moreover, the Todesfällen with Melanom, MEXF462 (55 mg/kg p.o.) is given as 2/6 Mäuse tot; in the data set with Melanom, MEXF462 (70 mg/kg p.o.), 5/6 Mäuse tot; in the data set on Mamma, MAXF857, 2/6; with Mamma, MAXF857 (listed as 10 (V)), 2/6 Mäuse tot.

As for `O=C(Nc1ccc2ncccc2c1)C(=S)c1cn(Cc2ccc(Cl)cc2)c2ccccc12` [Verbindung 11, 2-[1-(4-Chlor-benzyl)-1H-indol-3-yl]-N-chinolin-6-yl-2-thioxo-acetamid], the “Hemmung der Tubulin-Polymerisation, EC50” value in the data set on Rindertubulin (tubulin with 30% associated proteins (MAPs), mean of two independent experiments) was determined as 0.97 µg/mL. Also, the “Hemmwirkung auf die Polymerisation von Tubulin” value in the data set on Rindertubulin is reported as “sehr potente Hemmwirkung”.

Regarding `O=C(Nc1cccc2cccnc12)C(=O)c1cn(Cc2ccc(Cl)cc2)c2ccccc12` [Verbindung 12, 2-[1-(4-Chlor-benzyl)-1H-indol-3-yl]-2-oxo-N-chinolin-8-yl-acetamid], the EC50 was above 10 µM in the data set on Rindertubulin (setting [6]); above 3.16 µg/mL in data set [2]; above 3.16 µg/mL in data set [3]; above 3.16 µg/mL in data set [4]; above 3.16 µg/mL in [5]. Besides, the “Hemmwirkung auf die Polymerisation von Tubulin” value in the data set on Rindertubulin is given as “keinen Effekt”.

With `O=C(Nc1cccc2cnccc12)C(=O)c1cn(Cc2ccc(Cl)cc2)c2ccccc12` [Verbindung 13, 2-[1-(4-Chlor-benzyl)-1H-indol-3-yl]-N-isochinolin-5-yl-2-oxo-acetamid], the EC50 in the data set on Rindertubulin (setting [6]) is above 10 µM; in data set [2], above 3.16 µg/mL; in [3] it was above 3.16 µg/mL; in [4] it was above 3.16 µg/mL; in data set [5] it was above 3.16 µg/mL. Besides, the “Hemmwirkung auf die Polymerisation von Tubulin” value in the data set with Rindertubulin is reported as “keinen Effekt”.

Regarding `O=C(Nc1ccncc1)C(=O)c1cn(Cc2ccc(Cl)cc2)c2ccccc12` [Verbindung 14, 2-[1-(4-Chlor-benzyl)-1H-indol-3-yl]-2-oxo-N-pyridin-4-yl-acetamid], the EC50 in the data set with KB/HeLa Zellen was above 1000 nM. The “Optimale T/C % (Tag)” value in the data set on Melanom, MEXF462 (16 mg/kg p.o., day 18) is 0.7% (18); in the data set on Melanom, MEXF462 (32 mg/kg p.o., day 7), 14.6% (7). In addition, the Todesfällen in the data set on Melanom, MEXF462 (16 mg/kg p.o.) is recorded as 3/5 Mäuse tot; with Melanom, MEXF462 (32 mg/kg p.o.), 3/5 Mäuse tot.

As for `Cc1ccc2cccc(NC(=O)C(=O)c3cn(Cc4ccc(F)cc4)c4ccccc34)c2n1` [Verbindung 15, 2-[1-(4-Fluor-benzyl)-1H-indol-3-yl]-N-(2-methyl-chinolin-8-yl)-2-oxo-acetamid], the EC50 with Rindertubulin (setting [6]) was above 10 µM; in [3], above 3.16 µg/mL; in data set [4], above 3.16 µg/mL. In addition, the “Hemmwirkung auf die Polymerisation von Tubulin” value in the data set on Rindertubulin was “keinen Effekt”.

For `CC[C@]1(O)C[C@H]2CN(CCc3c([nH]c4ccccc34)[C@@](C(=O)OC)(c3cc4c(cc3OC)N(C=O)[C@H]3[C@@](O)(C(=O)OC)[C@H](OC(C)=O)[C@]5(CC)C=CCN6CC[C@]43[C@@H]65)C2)C1` [Vincristine], the “Hemmung der Topoisomerase II (Inhibierung der Decatenation von kDNA)” value in data set [1] is “keine inhibitorischen Effekte”. Besides, on human Topoisomerase II, the “Hemmung der Topoisomerase II (Inhibierung der pRYG Relaxation)” value is reported as “keine inhibitorischen Effekte”.
